Test results from PubChem BioAssay AID248 (DTP/NCI, 2004).
“And” between values parts separate entries of the source, which are not always exact repeats. Equal entries are not always repeated. Toxic doses and inconclusive results are not listed. No stated cut-off is given here; in the data, active means T/C of 150% or more; inactive means T/C below 125%.

Test system: L1210 leukemia ip in BDF1 mice, survival T/C
Test: NCI In Vivo Anticancer Drug Screen. Data for tumor model L1210 Leukemia (intraperitoneal) in B6D2F1 (BDF1) mice
Settings: endpoint: mean survival time, higher = longer survival
Summary of the method: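 Tumor was transplanted into mice, which were then dosed with test compound or vehicle alone. Survival was recorded for each group, and the treated figure was expressed relative to the control figure.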

[1] = dose: 100.0 mg/kg/injection, schedule: Q01DX009 (ip), vehicle: saline with Tween-80
[2] = dose: 100.0 mg/kg/injection, schedule: Q04DX003 (ip), vehicle: saline with Tween-80
[3] = dose: 200.0 mg/kg/injection, schedule: Q01DX009 (ip), vehicle: saline with Tween-80
[4] = dose: 200.0 mg/kg/injection, schedule: Q04DX003 (ip), vehicle: saline with Tween-80
[5] = dose: 400.0 mg/kg/injection, schedule: Q01DX009 (ip), vehicle: saline with Tween-80
[6] = dose: 400.0 mg/kg/injection, schedule: Q04DX003 (ip), vehicle: saline with Tween-80
[7] = dose: 100.0 mg/kg/injection, schedule: Q04DX002 (ip), vehicle: Klucel (hydroxypropylcellulose) (HPC)
[8] = dose: 100.0 mg/kg/injection, schedule: Q04DX003 (ip), vehicle: saline
[9] = dose: 100.0 mg/kg/injection, schedule: Q01DX001 (ip), vehicle: saline
[10] = dose: 200.0 mg/kg/injection, schedule: Q01DX001 (ip), vehicle: saline
[11] = dose: 400.0 mg/kg/injection, schedule: Q01DX001 (ip), vehicle: saline
[12] = dose: 50.0 mg/kg/injection, schedule: Q01DX001 (ip), vehicle: saline

Measured: T/C

CCOc1ccc(C(=O)Nc2c(C)cc(C)cc2C)cc1
inactive: [1] 96 % of control | [2] 100 % of control | [3] 96 % of control | [4] 93 % of control | [5] 101 % of control | [6] 94 % of control

SCC1SCCCS1
inactive: dose: 12.5 mg/kg/injection, schedule: Q04DX002 (ip), vehicle: saline with Tween-80 97 % of control | dose: 25.0 mg/kg/injection, schedule: Q04DX002 (ip), vehicle: saline with Tween-80 113 % of control | dose: 50.0 mg/kg/injection, schedule: Q04DX002 (ip), vehicle: saline with Tween-80 97 % of control

CCOC(=O)/C(C#N)=C/c1cccn1Cc1cc2c(cc1[N+](=O)[O-])OCO2
inactive: dose: 25.0 mg/kg/injection, schedule: Q04DX002 (ip), vehicle: Klucel (hydroxypropylcellulose) (HPC) 104 % of control | dose: 50.0 mg/kg/injection, schedule: Q04DX002 (ip), vehicle: Klucel (hydroxypropylcellulose) (HPC) 100 % of control | [7] 100 % of control

O=C(Nc1ccc(CC2=NCCN2)cc1)c1ccc(C(=O)Nc2ccc(CC3=NCCN3)cc2)cc1
inactive: dose: 0.5 mg/kg/injection, schedule: Q01DX Z (ip), vehicle: saline 102 % of control | dose: 1.0 mg/kg/injection, schedule: Q01DX Z (ip), vehicle: saline 104 % of control | dose: 2.0 mg/kg/injection, schedule: Q01DX Z (ip), vehicle: saline 91 % of control | dose: 4.0 mg/kg/injection, schedule: Q01DX Z (ip), vehicle: saline 104 % of control | dose: 8.0 mg/kg/injection, schedule: Q01DX Z (ip), vehicle: saline 104 % of control

[Cl][Pt][Cl].[NH-]CCN1CC1
inactive: dose: 5.0 mg/kg/injection, schedule: Q01DX009 (ip), vehicle: Klucel (hydroxypropylcellulose) (HPC) 114 % of control | dose: 10.0 mg/kg/injection, schedule: Q01DX009 (ip), vehicle: Klucel (hydroxypropylcellulose) (HPC) 110 % of control | dose: 20.0 mg/kg/injection, schedule: Q01DX009 (ip), vehicle: Klucel (hydroxypropylcellulose) (HPC) 98 % of control

CCOC(=O)CCSC
inactive: dose: 50.0 mg/kg/injection, schedule: Q01DX009 (ip), vehicle: saline with Tween-80 100 % of control | [1] 97 % of control | [2] 93 % of control | [3] 92 % of control | [4] 96 % of control

CCC12CCCN3C(=O)CC(C(=O)CC1)C32 (centres undefined)
inactive: [8] 107 % of control

COC(=O)CNC(=O)C1NC(C)(C)SC1(C)C (centres undefined)
inactive: [9] 97 % of control | [10] 101 % of control | [11] 95 % of control

COP(=O)(OC)C1C2CC3C(C2)C31 (centres undefined)
inactive: dose: 100.0 mg/kg/injection, schedule: Q04DX003 (ip), vehicle: acetone 103 % of control | dose: 200.0 mg/kg/injection, schedule: Q04DX003 (ip), vehicle: acetone 97 % of control | dose: 400.0 mg/kg/injection, schedule: Q04DX003 (ip), vehicle: acetone 100 % of control

Oc1ccc(-c2cc(O)c(-c3ccc(O)cc3)cc2O)cc1
inactive: dose: 100.0 mg/kg/injection, schedule: Q01DX009 (ip), vehicle: saline 95 % of control

NC(N)=N/N=C\c1ccc(OCc2ccccc2)cc1
inactive: dose: 15.0 mg/kg/injection, schedule: Q01DX Z (ip), vehicle: saline 96 % of control | dose: 15.0 mg/kg/injection, schedule: Q01DX Z (oral), vehicle: saline 91 % of control | dose: 30.0 mg/kg/injection, schedule: Q01DX Z (ip), vehicle: saline 102 % of control | dose: 30.0 mg/kg/injection, schedule: Q01DX Z (oral), vehicle: saline 94 % of control | dose: 60.0 mg/kg/injection, schedule: Q01DX Z (oral), vehicle: saline 90 % of control | dose: 120.0 mg/kg/injection, schedule: Q01DX010 (oral), vehicle: saline 102 % of control | dose: 120.0 mg/kg/injection, schedule: Q01DX Z (oral), vehicle: saline 89 % of control | dose: 240.0 mg/kg/injection, schedule: Q01DX010 (oral), vehicle: saline 102 % of control | dose: 400.0 mg/kg/injection, schedule: Q01DX010 (oral), vehicle: saline 91 % of control

N#CC(C#N)c1ccc(C(C#N)C#N)cc1
inactive: [12] 103 % of control | [9] 122 % of control | [10] 103 % of control

CC(=O)c1ccc(CCCC2CCCC2)cc1
inactive: [7] 88 % of control | dose: 200.0 mg/kg/injection, schedule: Q04DX002 (ip), vehicle: Klucel (hydroxypropylcellulose) (HPC) 91 % of control | dose: 400.0 mg/kg/injection, schedule: Q04DX002 (ip), vehicle: Klucel (hydroxypropylcellulose) (HPC) 91 % of control

COC(=O)C1=CCC=CC1
inactive: [2] 102 % of control | [4] 96 % of control | [6] 93 % of control

CC1(c2ccccc2)O[C@@H]2C[C@H]3[C@@H]4CCC5=CC(=O)C=C[C@]5(C)[C@@]4(F)[C@@H](O)C[C@]3(C)[C@]2(C(=O)CO)O1 (some centres undefined)
inactive: dose: 100.0 mg/kg/injection, schedule: Q01DX001 (sc), vehicle: steriod suspending solution 117 % of control | dose: 200.0 mg/kg/injection, schedule: Q01DX001 (sc), vehicle: steriod suspending solution 98 % of control | dose: 400.0 mg/kg/injection, schedule: Q01DX001 (sc), vehicle: steriod suspending solution 107 % of control

O=C1Nc2ccccc2C1=Nc1cccc2ncccc12
inactive: dose: 100.0 mg/kg/injection, schedule: Q01DX001 (ip), vehicle: acetone 97 % of control | dose: 200.0 mg/kg/injection, schedule: Q01DX001 (ip), vehicle: acetone 93 % of control | dose: 400.0 mg/kg/injection, schedule: Q01DX001 (ip), vehicle: acetone 100 % of control

O=[N+]([O-])c1cccc(S(=O)(=O)NNc2c(Cl)cc(Cl)cc2Cl)c1
inactive: dose: 100.0 mg/kg/injection, schedule: Q04DX003 (ip), vehicle: Klucel (hydroxypropylcellulose) (HPC) 94 % of control | dose: 200.0 mg/kg/injection, schedule: Q04DX003 (ip), vehicle: Klucel (hydroxypropylcellulose) (HPC) 93 % of control | dose: 400.0 mg/kg/injection, schedule: Q04DX003 (ip), vehicle: Klucel (hydroxypropylcellulose) (HPC) 96 % of control

CN(C)C(c1ccccc1)c1ccccc1
inactive: [12] 96 % of control | [9] 94 % of control | [10] 94 % of control | [11] 94 % of control

CCOc1ccc(Br)cc1/C=C(\C#N)c1ccc([N+](=O)[O-])cc1
inactive: dose: 25.0 mg/kg/injection, schedule: Q01DX009 (ip), vehicle: saline with Tween-80 92 % of control

CCOC(=O)c1ccc(NS(=O)(=O)c2c(C)cc(C)cc2C)cc1
inactive: [1] 104 % of control and 90 % of control | dose: 100.0 mg/kg/injection, schedule: Q04DX002 (ip), vehicle: saline with Tween-80 97 % of control and 103 % of control | [8] 95 % of control | [3] 95 % of control and 103 % of control | dose: 200.0 mg/kg/injection, schedule: Q04DX002 (ip), vehicle: saline with Tween-80 89 % of control and 91 % of control | dose: 200.0 mg/kg/injection, schedule: Q04DX003 (ip), vehicle: saline 96 % of control | [5] 95 % of control and 105 % of control | dose: 400.0 mg/kg/injection, schedule: Q04DX002 (ip), vehicle: saline with Tween-80 97 % of control and 87 % of control | dose: 400.0 mg/kg/injection, schedule: Q04DX003 (ip), vehicle: saline 91 % of control

C/C=C/Sc1ccccc1C(=O)O
inactive: dose: 50.0 mg/kg/injection, schedule: Q01DX001 (ip), vehicle: carboxymethylcellulose (CMC) 104 % of control | dose: 100.0 mg/kg/injection, schedule: Q01DX001 (ip), vehicle: carboxymethylcellulose (CMC) 100 % of control | dose: 200.0 mg/kg/injection, schedule: Q01DX001 (ip), vehicle: carboxymethylcellulose (CMC) 104 % of control

O=C(O)CC(Br)CBr (centres undefined)
inactive: [9] 94 % of control | [10] 103 % of control
